Laboratory results taken from the METLIN SMRT retention time set (Domingo-Almenara et al. 2019).

Assay: gradient 5% acetonitrile 3 min, to 50% in 2 min, to 85% in 15 min, held 3 min, 100 µL/min
Conditions: column: Zorbax Extend-C18 2.1 x 50 mm; eluents: water / acetonitrile, 0.1% formic acid
Summary of the method: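 Retention time was recorded from adduct peaks, which were picked computationally and each inspected manually. Pure standards ran in mixtures of ~100 molecules on HPLC coupled to a quadrupole time-of-flight mass spectrometer, in positive and negative ionization mode, through a Zorbax Extend-C18 column (2.1 × 50 mm, 1.8 μm) at 100 μL/min. Eluents were water and acetonitrile, each with 0.1% formic acid.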

Q: Which RP-LC retention time does the source give for `Cn1c(=O)n(C)c2cc(N3CCOCC3)c(NC(=O)NCc3cccc(F)c3)cc21` here?
A: The RP-LC retention time was 705 s.

Q: Which RP-LC retention time does the source give for `O=C(NCc1cccs1)C(=O)c1cccn1Cc1ccc(F)cc1` here?
A: The RP-LC retention time was 1010 s.

Q: With `COCCn1cc2c3c(cccc31)CN(C(=O)Nc1cccc(Cl)c1C)CC2` as the molecule, how does the RP-LC retention time read?
A: Its RP-LC retention time is 1070 s.

Q: Which RP-LC retention time does the source give for `CSCc1csc(NC(=O)NCc2ccc(F)cc2)n1` here?
A: The RP-LC retention time was 754 s.

Q: Which RP-LC retention time does the source give for `CC(C)n1cnc(S(=O)(=O)N2CCCC(C(=O)NCCCc3ccccc3)C2)c1` (stereo not drawn) here?
A: The RP-LC retention time was 806 s.

Q: Which RP-LC retention time does the source give for `CCOc1cc(C(=O)N2CCCC(C)(C(=O)NCc3ccc(C)cc3)C2)cc(OCC)c1OCC` (stereo not drawn) here?
A: Its RP-LC retention time is 1010 s.

Q: For `Cc1ccc(N(C)S(=O)(=O)c2cc3n(c2)CCCNC3=O)cc1`, which RP-LC retention time is on record?
A: Its RP-LC retention time is 663 s.

Q: With `CSc1ncn(-c2nc(NC(C)C)nc(NC(C)C)n2)n1` as the molecule, how does the RP-LC retention time read?
A: Its RP-LC retention time is 875 s.

Q: Which RP-LC retention time does the source give for `O=C(Cc1csc2nc(-c3ccccc3)cn12)Nc1cccc(F)c1` here?
A: The RP-LC retention time was 805 s.

Q: Which RP-LC retention time does the source give for `CCOc1ccc(NC(=O)CNC(=O)C2CCCCC2)cc1` here?
A: Its RP-LC retention time is 733 s.

Q: With `CN(C)C(=O)c1cc2cnc(Nc3ccc(N4CCNCC4)cn3)nc2n1C1CCCC1` as the molecule, how does the RP-LC retention time read?
A: Its RP-LC retention time is 630 s.

Q: For `CCc1ccc(-c2ccc(-n3nc(C)c(S(=O)(=O)NC4CC4)c3C)nn2)cc1`, which RP-LC retention time is on record?
A: The RP-LC retention time was 1070 s.

Q: With `Cc1cc(C)cc(NC(=O)N2CCN(CCn3c(-c4ccncc4)nc4cccnc43)CC2)c1` as the molecule, how does the RP-LC retention time read?
A: The RP-LC retention time was 627 s.

Q: With `CCCN1N=C(C(=O)N2CCCCCC2)S(=O)(=O)c2ccc(C)cc21` as the molecule, how does the RP-LC retention time read?
A: The RP-LC retention time was 991 s.

Q: With `CSc1ccccc1NC(=O)c1cnc(-c2ccc(C)cc2)nc1-c1ccncc1` as the molecule, how does the RP-LC retention time read?
A: The RP-LC retention time was 973 s.

Q: With `Cc1ccc(CN2CCN(CC(C)C(=O)NCc3cc(F)ccc3F)C(=O)C2=O)cc1` (stereo not drawn) as the molecule, how does the RP-LC retention time read?
A: Its RP-LC retention time is 765 s.

Q: For `O=C(NC1CCN(c2cc(-c3ccccc3)[nH]n2)C1)c1cccc(Cl)c1` (stereo not drawn), which RP-LC retention time is on record?
A: Its RP-LC retention time is 763 s.

Q: With `Oc1ccccc1CN1CCN(c2cc(-c3ccccc3)[nH]n2)CC1` as the molecule, how does the RP-LC retention time read?
A: The RP-LC retention time was 610 s.

Q: Which RP-LC retention time does the source give for `CCCc1cc(C2CCCN2C(=O)Nc2cccc(C)c2)no1` (stereo not drawn) here?
A: The RP-LC retention time was 945 s.

Q: With `Cc1c(Cl)cccc1NC(=O)C(=O)NC1CCCC1` as the molecule, how does the RP-LC retention time read?
A: The RP-LC retention time was 964 s.

Q: With `O=S(=O)(c1ccc2c(c1)CCC2)N1CCc2nc(-c3ccccc3)ncc2C1` as the molecule, how does the RP-LC retention time read?
A: Its RP-LC retention time is 1190 s.

Q: With `Fc1cccc(Cn2cc(-c3noc(-c4ccc5cc[nH]c5c4)n3)nn2)c1` as the molecule, how does the RP-LC retention time read?
A: The RP-LC retention time was 996 s.

Q: For `CC(C)Oc1ccc(CNC(=O)c2cc(-c3ccncc3)cn2C)cc1`, which RP-LC retention time is on record?
A: The RP-LC retention time was 640 s.

Q: With `Cc1ccc(-c2nc(N3CC(C)CC(C)C3)c3ccccc3n2)cc1` (stereo not drawn) as the molecule, how does the RP-LC retention time read?
A: Its RP-LC retention time is 932 s.

Q: Which RP-LC retention time does the source give for `Cc1cc(-c2c(C)sc(C)c2S(=O)(=O)NCC(C)c2ccccc2)n[nH]1` (stereo not drawn) here?
A: The RP-LC retention time was 1140 s.

Q: For `Cc1c(CC(=O)N2CCC(C(N)=O)CC2)c(=O)oc2cc3occ(C(C)(C)C)c3cc12`, which RP-LC retention time is on record?
A: Its RP-LC retention time is 785 s.

Q: For `O=C(NCc1ccc(F)cc1F)C1CCN(c2cc(N3CCOCC3)ncn2)CC1`, which RP-LC retention time is on record?
A: Its RP-LC retention time is 627 s.

Q: Which RP-LC retention time does the source give for `CCc1ccc(NC(=O)Cn2nc(N3CCOCC3)c3ccccc3c2=O)cc1` here?
A: The RP-LC retention time was 874 s.

Q: For `CN(C)CCC(c1ccccc1)c1ccccn1` (stereo not drawn), which RP-LC retention time is on record?
A: Its RP-LC retention time is 580 s.

Q: With `COC(=O)c1ccc(NC(=O)N(Cc2cc(=O)[nH]c3ccccc23)CC(C)C)cc1` as the molecule, how does the RP-LC retention time read?
A: The RP-LC retention time was 830 s.

Q: For `CC(=O)N1c2ccc(S(=O)(=O)N3CCCCC3)cc2CC1C(=O)NCCc1ccc(C)cc1` (stereo not drawn), which RP-LC retention time is on record?
A: The RP-LC retention time was 941 s.

Q: For `CCn1c(C)c(-c2nc(C3CC3)no2)c(S(=O)(=O)NCC2CCCO2)c1C` (stereo not drawn), which RP-LC retention time is on record?
A: The RP-LC retention time was 768 s.

Q: For `O=C(NCc1ccccn1)c1ccc2c(c1)nc1n2CCCCC1`, which RP-LC retention time is on record?
A: Its RP-LC retention time is 548 s.

Q: For `Cc1nc(C2CCOCC2)n(C2CCN(S(=O)(=O)c3cccnc3)C2)n1` (stereo not drawn), which RP-LC retention time is on record?
A: Its RP-LC retention time is 622 s.

Q: Which RP-LC retention time does the source give for `CCCn1c(=O)c2cc(C(=O)Nc3cccc(C)c3)nn2c2ccccc21` here?
A: The RP-LC retention time was 1080 s.

Q: For `Cc1noc(C)c1S(=O)(=O)N1CC(c2nc(CCOCc3ccccc3)no2)C1`, which RP-LC retention time is on record?
A: Its RP-LC retention time is 979 s.

Q: For `CCC(C)NC(=O)c1cccn1Cc1noc(-c2ccc(Cl)cc2)n1` (stereo not drawn), which RP-LC retention time is on record?
A: Its RP-LC retention time is 1080 s.

Q: With `CC(C)(C)NC(=O)N1CCOc2ccccc21` as the molecule, how does the RP-LC retention time read?
A: Its RP-LC retention time is 892 s.
